Source: US9079866B2, “Flap modulators” (JANSSEN PHARMACEUTICA NV, priority 2013, dated 2015)
Where a name gives a salt, the structure may show the parent alone. Read-outs that look alike come from different tables or passages of the source.

Experiments:
[1] = test system: leukotriene pathway in human whole blood (LTB4 levels); test: Human whole blood assay (A23187-stimulated LTB4); type: cell-based; settings: Homo sapiens, read-out: LTB4 IC50 1:1
Summary of the method: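 Blood (heparin) diluted 1:1 RPMI; compound pre-incubation 15 min, 37° Celsius; A23187 7 μg/mL, 30 min, 37° Celsius; plasma LTB4 by commercial kit. IC50 via 4-parameter equation.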

[2] = molecular target: human FLAP (Homo sapiens (Human), UniProt P20292); test: FLAP binding assay (HTRF format)
human FLAP, sequence (P20292 whole entry): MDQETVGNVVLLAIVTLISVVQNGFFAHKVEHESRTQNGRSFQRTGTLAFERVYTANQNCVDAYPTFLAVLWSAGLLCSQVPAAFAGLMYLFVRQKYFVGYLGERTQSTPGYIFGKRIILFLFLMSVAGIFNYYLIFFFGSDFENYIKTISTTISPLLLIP
Summary of the method: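 Samples were run in duplicate on each of two plates and the plate results averaged. Read-out is the HTRF signal ratio.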

[3] = human whole blood diluted 1:1 in RPMI, A23187-stimulated LTB4
[4] = human FLAP wild type, HTRF format, average of two plates, duplicates
[5] = human whole blood diluted 1:1, A23187-stimulated

Nc1ncc(-c2ccc(-c3ccccc3S(=O)(=O)Nc3ccccc3)cc2F)cn1 [Example 285, 4′-(2-Aminopyrimidin-5-yl)-3′-fluoro-N-phenylbiphenyl-2-sulfonamide trifluoroacetic acid salt]
IC50 [1, 3]: 111 nM | Ki [2, 4]: 3 nM

Nc1cnc(-c2ccc(-c3ccccc3S(=O)(=O)N3CC[C@@H](CO)C3)cc2F)cn1 [Example 111, (R)-(1-((4′-(5-Aminopyrazin-2-yl)-3′-fluoro-[1,1′-biphenyl]-2-yl)sulfonyl)pyrrolidin-3-yl)methanol]
IC50 [1, 3]: 58 nM | Ki [2, 4]: 4 nM

CCNS(=O)(=O)c1cc(C(F)(F)F)ccc1-c1ccc(-c2cnc(N)cn2)c(F)c1 [Example 211, 4′-(5-Aminopyrazin-2-yl)-N-ethyl-3′-fluoro-4-(trifluoromethyl)biphenyl-2-sulfonamide]
IC50 [1, 3]: 6 nM | Ki [2, 4]: 1 nM

Nc1cnc(-c2ccc(-c3ccccc3S(=O)(=O)N[C@@H]3CCCC[C@@H]3CO)cc2F)cn1 (racemic) [Example 122, racemic (cis)-4′-(5-Aminopyrazin-2-yl)-3′-fluoro-N-[2-(hydroxymethyl)cyclohexyl]biphenyl-2-sulfonamide]
IC50 [1, 3]: 18 nM | Ki [2, 4]: 1 nM

Nc1ncc(-c2ccc(-c3cccnc3S(=O)(=O)C3CCCCC3)cc2F)cn1 [Example 807, 5-(4-(2-(Cyclohexlsulfonyl)pyridin-3-yl)-2-fluorophenyl)pyrimidin-2-amine hydrochloride]
IC50 [1, 5]: 72.2 nM | Ki ([2]; read-out: FLAP Binding wild type HTRF Ki): 5.8 nM

Nc1ncc(-c2ccc(-c3ccc(C(F)(F)F)cc3S(=O)(=O)NCCO)cn2)cn1 [Example 690, 2-[6-(2-Aminopyrimidin-5-yl)pyridin-3-yl]-N-(2-hydroxyethyl)-5-(trifluoromethyl)benzenesulfonamide]
IC50 [1, 5]: 118 nM | Ki ([2]; wild type FLAP, HTRF format): 177 nM

Nc1cnc(-c2ccc(-c3ccccc3S(=O)(=O)NCCCCCCO)cc2F)cn1 [Example 133, 4′-(5-Aminopyrazin-2-yl)-3′-fluoro-N-(6-hydroxyhexyl)biphenyl-2-sulfonamide]
IC50 [1, 3]: 32 nM | Ki [2, 4]: 1 nM

Nc1cnc(-c2ccc(-c3ccccc3S(=O)(=O)N3CCC[C@H]3CO)cc2F)cn1 [Example 95, (S)-(1-((4′-(5-Aminopyrazin-2-yl)-3′-fluoro-[1,1′-biphenyl]-2-yl)sulfonyl)pyrrolidin-2-yl)methanol]
IC50 [1, 3]: 53 nM | Ki [2, 4]: 10 nM

Nc1cnc(-c2ccc(-c3ccccc3S(=O)(=O)N3CCCCC3)cc2F)cn1 [Example 43, 5-[3-Fluoro-2′-(piperidin-1-ylsulfonyl)biphenyl-4-yl]pyrazin-2-amine]
IC50 [1, 3]: 111 nM | Ki [2, 4]: 2 nM

C[C@H](NC(=O)c1cc(C(F)(F)F)ccc1-c1ccc(-c2cnc(N)cn2)c(F)c1)C(F)(F)F [Example 790, 2-[4-(5-Aminopyrazin-2-yl)-3-fluoro-phenyl]-5-(trifluoromethyl)-N-[(1S)-2,2,2-trifluoro-1-methyl-ethyl]benzamide]
IC50 [1, 5]: 25.3 nM | Ki ([2]; wild type FLAP, HTRF format): 1.5 nM

Cn1cc(-c2ccccc2-c2ccc(-c3cnc(N)cn3)c(F)c2)cn1 [Example 847, 5-[3-Fluoro-2′-(1-methyl-1H-pyrazol-4-yl)biphenyl-4-yl]pyrazin-2-amine]
IC50 [1, 5]: 99.1 nM | Ki ([2]; wild type FLAP, HTRF format): 8.1 nM

CC(CO)Oc1ncccc1-c1ccc(-c2cnc(N)cn2)c(F)c1 (stereo in doubt) [Example 655, (2R)-2-({3-[4-(5-Aminopyrazin-2-yl)-3-fluorophenyl]pyridin-2-yl}oxy)propan-1-ol]
IC50 [1, 5]: 1830 nM | Ki ([2]; wild type FLAP, HTRF format): 503 nM

Nc1cnc(-c2ccc(-c3cccnc3OC3CCCC3)cc2F)cn1 [Example 402, 5-{4-[2-(Cyclopentyloxy)pyridin-3-yl]-2-fluorophenyl}pyrazin-2-amine]
IC50 [1, 5]: 522 nM | Ki ([2]; wild type FLAP, HTRF format): 92 nM

CCN(c1ccccc1-c1ccc(-c2cnc(N)cn2)c(F)c1)S(C)(=O)=O [Example 496, N-[4′-(5-Aminopyrazin-2-yl)-3′-fluorobiphenyl-2-yl]-N-ethylmethanesulfonamide]
IC50 [1, 5]: 165 nM | Ki ([2]; wild type FLAP, HTRF format): 19 nM

Nc1cnc(-c2ccc(-c3ccccc3S(=O)(=O)NCCc3ccccc3)cc2F)cn1 [Example 17, 4′-(5-Aminopyrazin-2-yl)-3′-fluoro-N-(2-phenylethyl)biphenyl-2-sulfonamide]
IC50 [1, 3]: 25 nM | Ki [2, 4]: 2 nM

CC(C)Oc1ccccc1-c1ccc(-c2cnc(N)cn2)c(F)c1 [Example 487, 5-[3-Fluoro-2′-(1-methylethoxy)biphenyl-4-yl]pyrazin-2-amine]
IC50 [1, 5]: 444 nM | Ki ([2]; wild type FLAP, HTRF format): 54 nM

Nc1cnc(-c2ccc(-c3ccccc3S(=O)(=O)NC[C@@H](O)CO)cc2F)cn1 [Example 105, (R)-4′-(5-Aminopyrazin-2-yl)-N-(2,3-dihydroxypropyl)-3′-fluoro-[1,1′-biphenyl]-2-sulfonamide]
IC50 [1, 3]: 481 nM | Ki [2, 4]: 25 nM

Nc1cnc(-c2ccc(-c3ccccc3S(=O)(=O)N3CCC(O)(c4ccccc4)C3)cc2F)cn1 (racemic) [Example 180, racemic 1-{[4′-(5-Aminopyrazin-2-yl)-3′-fluorobiphenyl-2-yl]sulfonyl}-3-phenylpyrrolidin-3-ol]
IC50 [1, 3]: 37 nM | Ki [2, 4]: 2 nM

Nc1cnc(-c2ccc(-c3ccc(C(F)(F)F)cc3Oc3nccc(N)n3)cc2F)cn1 [Example 556, 2-{[4′-(5-Aminopyrazin-2-yl)-3′-fluoro-4-(trifluoromethyl)biphenyl-2-yl]oxy}pyrimidin-4-amine]
IC50 [1, 5]: 13 nM | Ki ([2]; wild type FLAP, HTRF format): 1 nM

CN(C)S(=O)(=O)c1ccccc1-c1ccc(-c2cnc3[nH]ccc3n2)c(F)c1 [Example 370, 3′-Fluoro-N,N-dimethyl-4′-(5H-pyrrolo[2,3-b]pyrazin-2-yl)biphenyl-2-sulfonamide]
IC50 [1, 3]: 88 nM | Ki [2, 4]: 2 nM

C[C@H](CO)NS(=O)(=O)c1ccccc1-c1ccc(-c2nnc(N)s2)c(F)c1 [Example 439, (R)-4′-(5-Amino-1,3,4-thiadiazol-2-yl)-3′-fluoro-N-(1-hydroxypropan-2-yl)-[1,1′-biphenyl]-2-sulfonamide]
IC50 [1, 5]: 300 nM | Ki ([2]; wild type FLAP, HTRF format): 63 nM

Cc1cnc(NS(=O)(=O)c2ccccc2-c2ccc(-c3cnc(N)cn3)c(F)c2)cn1 [Example 167, 4′-(5-Aminopyrazin-2-yl)-3′-fluoro-N-(5-methylpyrazin-2-yl)biphenyl-2-sulfonamide]
IC50 [1, 3]: 442 nM | Ki [2, 4]: 47 nM

Nc1ncc(-c2ccc(-c3ccccc3S(=O)(=O)N[C@H]3CCCC[C@H]3O)cc2F)cn1 (racemic) [Example 259, racemic 4′-(2-Aminopyrimidin-5-yl)-3′-fluoro-N-[(cis)-2-hydroxycyclohexyl]biphenyl-2-sulfonamide]
IC50 [1, 3]: 34 nM | Ki [2, 4]: 5 nM

CNS(=O)(=O)c1ccccc1-c1ccc(-c2cnc(N)cn2)c(F)c1 [Example 15, 4′-(5-Aminopyrazin-2-yl)-3′-fluoro-N-methylbiphenyl-2-sulfonamide]
IC50 [1, 3]: 59 nM | Ki [2, 4]: 10 nM

Nc1ncc(-c2ccc(-c3ccc(C(F)(F)F)cc3Oc3ccnc(N)n3)cc2F)cn1 [Example 560, 4-{[4′-(2-Aminopyrimidin-5-yl)-3′-fluoro-4-(trifluoromethyl)biphenyl-2-yl]oxy}pyrimidin-2-amine]
IC50 [1, 5]: 95 nM | Ki ([2]; wild type FLAP, HTRF format): 5 nM

Nc1cnc(-c2ccc(-c3ccc(C(F)(F)F)cc3CN3CCOCC3)cc2F)cn1 [Example 605, 5-[3-Fluoro-2′-(morpholin-4-ylmethyl)-4′-(trifluoromethyl)biphenyl-4-yl]pyrazin-2-amine]
IC50 [1, 5]: 97.8 nM | Ki ([2]; wild type FLAP, HTRF format): 1.9 nM

Nc1cnc(-c2ccc(-c3ccccc3S(=O)(=O)N[C@H]3CC[C@@H](N)CC3)cc2F)cn1 [Example 134, cis-N-(4-Aminocyclohexyl)-4′-(5-aminopyrazin-2-yl)-3′-fluorobiphenyl-2-sulfonamide]
IC50 [1, 3]: > 1000 nM | Ki [2, 4]: 1 nM

Nc1ncc(-c2ccc(-c3ccc(C(F)(F)F)cc3C(=O)N3CCS(=O)(=O)CC3)cc2F)cn1 [Example 793, [2-[4-(2-Aminopyrimidin-5-yl)-3-fluoro-phenyl]-5-(trifluoromethyl)phenyl]-(1,1-dioxo-1,4-thiazinan-4-yl)methanone]
IC50 [1, 5]: 642 nM | Ki ([2]; wild type FLAP, HTRF format): 280 nM

Nc1cnc(-c2ccc(-c3ccccc3S(N)(=O)=O)cc2F)cn1 [Example 5, 4′-(5-Aminopyrazin-2-yl)-3′-fluorobiphenyl-2-sulfonamide]
IC50 [1, 3]: 370 nM | Ki [2, 4]: 35 nM

CCN(CC)S(=O)(=O)c1ccccc1-c1ccc(-c2cnc(N)cn2)c(F)c1 [Example 47, 4′-(5-Aminopyrazin-2-yl)-N,N-diethyl-3′-fluorobiphenyl-2-sulfonamide]
IC50 [1, 3]: 17 nM | Ki [2, 4]: 1 nM

Nc1ncc(-c2ccc(-c3ccc(C(F)(F)F)cc3CN3CCOCC3)cn2)cn1 [Example 676, 5-{5-[2-(Morpholin-4-ylmethyl)-4-(trifluoromethyl)phenyl]pyridin-2-yl}pyrimidin-2-amine]
IC50 [1, 5]: 3710 nM | Ki ([2]; wild type FLAP, HTRF format): 234 nM

Nc1cnc(-c2ccc(-c3ccccc3S(=O)(=O)N[C@@H]3c4ccccc4C[C@H]3O)cc2F)cn1 [Example 159, 4′-(5-Aminopyrazin-2-yl)-3′-fluoro-N-((1R,2R)-2-hydroxy-2,3-dihydro-1H-inden-1-yl)-[1′,1′-biphenyl]-2-sulfonamide]
IC50 [1, 3]: 1 nM | Ki [2, 4]: 1 nM

Nc1ncc(-c2ccc(-c3ccccc3Sc3ccncn3)cc2F)cn1 [Example 214, 5-[3-Fluoro-2′-(pyrimidin-4-ylsulfanyl)biphenyl-4-yl]pyrimidin-2-amine formate salt]
IC50 [1, 3]: 138 nM | Ki [2, 4]: 12 nM

Nc1ncc(-c2ccc(-c3ccccc3Oc3cc(C4CC4)ncn3)cc2F)cn1 [Example 637, 5-{2′-[(6-Cyclopropylpyrimidin-4-yl)oxy]-3-fluorobiphenyl-4-yl}pyrimidin-2-amine]
IC50 [1, 5]: 398 nM | Ki ([2]; wild type FLAP, HTRF format): 18.8 nM
